Experiment [1] has as its system ACLY knockdown primary hepatocytes. The experiment is described as follows: De novo lipid synthesis in ACLY knockdown primary hepatocytes, [14C]-citric acid tracer. Conditions: [14C]-citric acid substrate. It is filed as cell-based, mouse. The text has this: Test protocol: In order to further investigate the dependence of the inhibitory effect of the series of compounds on de novo lipid synthesis on ACLY, the inventors chose ACLY knockdown primary hepatocytes for further evaluation of de novo lipid synthesis, while compound ETC-1002 was used as a positive control. Specifically, the experimental protocol was as above, and 0.1 μCi/well [^14C]-citric acid was used for tracing.

The next experiment concerns crab-eating monkeys. The experiment is described as follows: High-fat, high-sugar, high-cholesterol diet-induced NASH in crab-eating monkeys. In kind it is in vivo, crab-eating monkey. The conditions noted are these: 20 mg/kg, 1 time/day, 14 weeks, liver puncture. As to the method: Dosing regimen: 18 non-alcoholic steatohepatitis-eating crab monkeys, males, were divided into 2 groups (n=8-10), one group was set up as a model control group, and one group was set up as a drug administration group. The drug (20 mg/kg) was administered at a frequency of 1 time/day for 14 weeks while feeding a high-fat, high-sugar, high-cholesterol diet for 14 weeks.
Indicator tests: The body weights and food intake of the crab-eating monkeys were closely monitored during the administration period. After 14 weeks of compound administration, liver puncture was performed for pathologic analysis of NASH indicators.

In experiment [2] the test system is primary hepatocytes from WT mice. The experiment is described as follows: De novo lipid synthesis in WT primary hepatocytes, [14C]-citric acid tracer. It is filed as cell-based. Conditions: WT mouse hepatocytes, [14C]-citric acid substrate.

With `CC(C)(CCCC/C=C/CCCCCC(C)(C)C(=O)O)C(=O)O` [Compound A3], in experiment [1], the “inhibitory effect on de novo synthesis of cholesterol” value is reported as “significantly attenuated or even the inhibitory effect was not manifested” and the “inhibitory effect on de novo synthesis of triglycerides” value is “significantly attenuated or even the inhibitory effect was not manifested”. Besides, in the experiment on crab-eating monkeys, the “accumulation of hepatic lipids” value is recorded as “significantly reduce”, the “activity score of non-alcoholic steatohepatopathy (NAS)” value was “significantly reduced”, the occurrence of fibrosis result was “significantly reduce” and the occurrence of inflammation entry is “significantly reduce”. In addition, the “de novo synthesis of triglycerides” value in experiment [2] (FIG. 1 A) is recorded as “significantly inhibited”. The “de novo synthesis of cholesterol” value in experiment [2] (FIG. 1 B) is on record as “significantly inhibited”.

The record behind these values is US20250144127A1, “LONG-CHAIN COMPOUND AND USE THEREOF” (Burgeon Therapeutics Co., Ltd., priority 2021, published 2025).
